This is an account of results in PubChem BioAssay (NCI).

SMILES strings stand for the structures.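 A five-concentration, 48-hour dose response in 96-well plates underlies each endpoint, interpolated linearly between surrounding concentrations. TGI marks complete inhibition of growth.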 Where a SMILES comes first, the peptide text is derived from it. Where only a bound is given, the exact number is not on record here.

Test in all cases: NCI tumour cell line growth inhibition, 48 h
Assay [1] deals with SK-MEL-5 melanoma.
Assay [2] has as its system ACHN renal.
The test system of assay [3] is OVCAR-8 ovarian.
Assay [4] concerns A549 NSCLC.
Assay [5] deals with SK-MEL-2 melanoma.
Assay [6] relates to SK-MEL-28 melanoma.
Assay [7] relates to SW-620 colon.
For assay [8], the system named is K-562 leukemia.
For assay [9], the system named is LOX IMVI melanoma.
The subject of assay [10] is SF-295 CNS.

`CCC1(O)CC(O)c2c(O)c3c(c(O)c2C1C(=O)OC)C(=O)c1cccc(O)c1C3=O` (centres undefined): the TGI was 6.39 µM in assay [1]; 15.1 µM in assay [2]; 5.88 µM in assay [3]; 14.2 µM in assay [4]; 10.2 µM in [5]; 75.4 µM in assay [6]. Also, the TGI was > 48.2 µM in assay [7], > 21.8 µM in assay [8], 9.92 µM in assay [9] and 10.7 µM in [10].

With `Cc1c(Cl)c(=O)oc2cc(OCC(O)COC(C)C)ccc12` (centres undefined), the TGI in assay [1] was 38.3 µM; in [2] it was > 100 µM; in assay [3] it was > 100 µM; in assay [4], > 100 µM; in assay [5], 58.2 µM; in assay [6] it was > 100 µM. The TGI in assay [7], in assay [8], in assay [9] and in [10] was > 100 µM each time.

In the case of `Cc1cc2nc3c(N)nn(CCN(C)C)c3nc2cc1C`, the TGI in assay [1] is > 100 µM; in assay [2], 95.5 µM; in assay [3], > 100 µM; in assay [4] it was > 100 µM; in assay [5] it was > 100 µM; in [6], > 100 µM. The TGI was > 100 µM in assay [7], > 100 µM in assay [8], 76.2 µM in assay [9] and > 100 µM in assay [10].

Consider `O=c1cnc2cc3ccccc3cc2[nH]1`, for which the TGI in assay [1], in assay [2], in assay [3], in assay [4], in [5] and in [6] was > 100 µM each time. For the same compound, the TGI in [7], in assay [8], in assay [9] and in assay [10] was > 100 µM in each case.

As for `COC(CC1(CCNc2ccccc2)C(=O)N(COCC[Si](C)(C)C)c2ccccc21)OC` (centres undefined), the TGI in assay [1] was > 100 µM; in [2], 37.1 µM; in assay [3] it was 35.1 µM; in assay [4], 34.3 µM; in [5], 29.9 µM; in assay [6], 30.1 µM. Besides, the TGI in assay [7] was > 55.3 µM; in assay [8] it was > 100 µM; in assay [9] it was 29.7 µM; in [10], 32 µM.

Consider `COc1ccccc1NC(=O)CSC(N)=O`, for which the TGI is > 100 µM in [1]; > 100 µM in [2]; > 100 µM in assay [3]; > 100 µM in assay [4]; 61.4 µM in [5]; > 100 µM in [6]. Moreover, the TGI in assay [7], in assay [8], in assay [9] and in assay [10] was > 100 µM in each case.

Turning to `CCC(=O)Nc1ccc(N2C(=O)/C(=C/c3ccc(O)c(OC)c3)N=C2c2ccccc2)cc1`, the TGI in [1] was 32.8 µM; in assay [2], 89.9 µM; in assay [3] it was > 100 µM; in [4] it was > 100 µM; in assay [5], 93.5 µM; in [6], > 100 µM. The TGI in assay [7], in assay [8], in assay [9] and in assay [10] was > 100 µM each time.

Consider `Cc1ccc(Cl)c2c(=O)cc(-c3ccccc3)[nH]c12`, for which the TGI in assay [1], in assay [2], in [3], in assay [4], in [5] and in assay [6] was > 100 µM throughout. The TGI in assay [7], in assay [8], in assay [9] and in assay [10] was > 100 µM each time.

On to `CCCCCCCCCCC[N+]1(Cc2ccccc2)CC2CCN(Cc3ccccc3)CC2C1` (centres undefined), for which the TGI is 0.357 µM in assay [1]; 2.43 µM in [2]; 1.5 µM in assay [3]; 2.43 µM in assay [4]; 0.724 µM in [5]; 1.95 µM in assay [6]. Besides, the TGI in [7] was found to be 1.58 µM; in assay [8], 0.827 µM; in [9], 1.6 µM; in [10] it was 2.28 µM.

For `O=[N+]([O-])c1cccc([N+](=O)[O-])c1Cl`, the TGI came out at 32.7 µM in [1]; 31.4 µM in assay [2]; 31.5 µM in assay [3]; 30 µM in [4]; 43.9 µM in assay [5]; 42 µM in assay [6]. Moreover, the TGI in assay [7] is > 100 µM; in assay [8] it was > 100 µM; in [9], 6.88 µM; in [10] it was 34.8 µM.

As to `CC(=O)Nc1nc(C)c(S(=O)(=O)NC(=O)N2c3ccccc3CCc3ccccc32)s1`, the TGI in assay [1], in assay [2], in assay [3], in assay [4], in assay [5] and in assay [6] was > 100 µM each time. Besides, the TGI in assay [7], in assay [8], in assay [9] and in [10] was > 100 µM each time.

In the case of `CCC(C)C(NC(=O)C1CCCN1)C(=O)NC(C(=O)NCC(=O)NC(CC(N)=O)C(=O)NC(CC(C)C)C(=O)NC(CC(C)C)C(=O)NC(CCCCN)C(N)=O)C(C)C` (centres undefined) (H-PIVGNLLK-NH2; configuration not given here), the TGI in [1], in assay [2], in assay [3], in assay [4], in [5] and in [6] was > 75 µM each time. Further, the TGI in assay [7], in [8], in [9] and in assay [10] was > 75 µM in each case.

With `Cc1ccc(C(=O)NN=C(/N=N/c2cccc(C)c2)c2ccc(N(C)C)cc2)cc1`, the TGI in assay [1], in assay [2], in assay [3], in assay [4], in [5] and in assay [6] was > 100 µM throughout. For the same compound, the TGI in [7], in assay [8], in [9] and in assay [10] was > 100 µM each time.

Turning to `O=C1NC(=S)N/C1=C\c1ccc(Sc2ccccc2C(=O)O)s1`, the TGI in assay [1], in [2], in [3], in assay [5], in assay [6] and in assay [7] was > 100 µM each time. Besides, the TGI in assay [8], in assay [9] and in [10] was > 100 µM in each case.
